Laboratory results from ChEMBL document CHEMBL1141451, “Crotonkinins A and B and related diterpenoids from Croton tonkinensis as anti-inflammatory and antitumor agents” (J Nat Prod, 2007).
Values after ≈ are worked out from the molar mass of the structure shown.

Assays:
BV-2 = assay: Inhibition of NADPH oxidase in mouse BV2 cells assessed as NOX-dependent ROS production at 50 uM; type: cell-based
[1] = Cytotoxicity against human KB-VIN cells at 20 ug/ml; type: functional; conditions: KBVIN
[2] = Inhibition of nitric oxide synthase in mouse BV2 cells assessed as inhibition of LPS-induced NO production; type: cell-based; conditions: BV-2
MCF7 [3] = assay: Cytotoxicity against human MCF7 cells at 20 ug/ml; type: functional
A549 [4] = assay: Cytotoxicity against human A549 cells at 20 ug/ml; type: functional
KB [5] = assay: Cytotoxicity against human KB cells at 20 ug/ml; type: functional
KB [6] = assay: Cytotoxicity against human KB cells; type: functional, cell-based
A549 [7] = assay: Cytotoxicity against human A549 cells; type: functional, cell-based
[8] = Cytotoxicity against human KB-VIN cells; type: functional, cell-based; conditions: KBVIN
MCF7 [9] = assay: Cytotoxicity against human MCF7 cells; type: functional, cell-based
[10] = Inhibition of NADPH oxidase in mouse BV2 cells assessed as NOX-dependent ROS production; conditions: BV-2

Compound | inhibition (BV-2) | inhibition at 20 µg/mL [1] | IC50 [2] | inhibition at 20 µg/mL (MCF7 [3]) | inhibition at 20 µg/mL (A549 [4]) | inhibition at 20 µg/mL (KB [5]) | EC50 (KB [6]) | EC50 (A549 [7]) | EC50 [8] | EC50 (MCF7 [9]) | IC50 [10]
C=C1C[C@]23C(=O)C[C@H]4C(C)(C)CCC[C@]4(C)[C@H]2CC[C@H]1[C@@H]3O [CROTONKININ A] | 11.2% | < 50% | 46.2 µM | < 50% | < 50% | < 50% |  |  |  |  | 
COC(=O)[C@@H](N)CCCNC(=N)N[N+](=O)[O-] [L-NAME] |  |  | 20.1 µM |  |  |  |  |  |  |  | 
C=C1C(=O)[C@@]23CC[C@@H]4[C@@](C)(CO)CCC[C@@]4(C)[C@@H]2CC[C@@H]1C3 |  |  |  |  |  |  | 1.47 µg/mL (≈ 4.86 µM) | 6.52 µg/mL (≈ 21.6 µM) | 1.31 µg/mL (≈ 4.33 µM) | 4.31 µg/mL (≈ 14.2 µM) | 
C=C1C(=O)[C@]23C[C@H]1CC[C@H]2[C@]1(C)CCC[C@](C)(COC(C)=O)[C@H]1C[C@H]3O | 24.8% |  | 1.3 µM |  |  |  | 0.71 µg/mL (≈ 1.97 µM) | 1.26 µg/mL (≈ 3.5 µM) | 0.61 µg/mL (≈ 1.69 µM) | 0.65 µg/mL (≈ 1.8 µM) | 
C=C1C(=O)[C@@]23CC[C@H]4[C@@](C)(CCC[C@]4(C)C(=O)O)[C@@H]2CC[C@@H]1C3 | 14.2% |  | 2.6 µM |  |  |  | 1.04 µg/mL (≈ 3.29 µM) | 3.91 µg/mL (≈ 12.4 µM) | 1.08 µg/mL (≈ 3.41 µM) | 2.69 µg/mL (≈ 8.5 µM) | 
c1ccc2c(c1)[I+]c1ccccc1-2 [DIPHENYLENEIODONIUM] | 94.3% |  |  |  |  |  |  |  |  |  | 16 µM
C=C1C(=O)[C@]23C[C@H]1CC[C@H]2[C@]1(C)CCCC(C)(C)[C@H]1C[C@H]3O | 23.1% |  | 4 µM |  |  |  | 0.79 µg/mL (≈ 2.61 µM) | 4.77 µg/mL (≈ 15.8 µM) | 0.74 µg/mL (≈ 2.45 µM) | 1.47 µg/mL (≈ 4.86 µM) | 
C=C1C(=O)[C@@]23[C@H](O)C[C@@H]4C(C)(C)CCC[C@@]4(C)[C@@H]2CC[C@@H]1[C@H]3O | 29.4% |  | 1.2 µM |  |  |  | 0.64 µg/mL (≈ 2.01 µM) | 1.45 µg/mL (≈ 4.55 µM) | 0.63 µg/mL (≈ 1.98 µM) | 0.75 µg/mL (≈ 2.36 µM) | 
C=C1C(=O)[C@@]23CC[C@@H]4[C@@](C)(COC(C)=O)CCC[C@@]4(C)[C@@H]2CC[C@@H]1C3 |  |  |  |  |  |  | 3.75 µg/mL (≈ 10.9 µM) | 6.56 µg/mL (≈ 19 µM) | 2.84 µg/mL (≈ 8.24 µM) | 6.11 µg/mL (≈ 17.7 µM) | 
C=C1C(=O)[C@]23C[C@H]1CC[C@H]2[C@]1(C)CCC[C@](C)(CO)[C@H]1C[C@H]3O | 20.6% |  | 1.4 µM |  |  |  | 0.87 µg/mL (≈ 2.73 µM) | 3.96 µg/mL (≈ 12.4 µM) | 0.82 µg/mL (≈ 2.57 µM) | 0.98 µg/mL (≈ 3.08 µM) | 
C=C1C(=O)[C@@]23[C@H](O)C[C@@H]4[C@@](C)(COC(C)=O)CCC[C@@]4(C)[C@@H]2CC[C@@H]1[C@H]3O |  |  |  |  |  |  | 0.93 µg/mL (≈ 2.47 µM) | 2.78 µg/mL (≈ 7.38 µM) | 0.88 µg/mL (≈ 2.34 µM) | 1.98 µg/mL (≈ 5.26 µM) | 
CC(=O)OC[C@@]1(C)CCC[C@]2(C)[C@@H]1C[C@H](O)[C@@]13C[C@@H](CC[C@@H]21)[C@H](C)C3=O | 9.5% | < 50% | 42.5 µM | < 50% | < 50% | < 50% |  |  |  |  | 
C=C1C(=O)[C@@]23[C@H](O)C[C@@H]4C(C)(C)CC[C@@H](OC(C)=O)[C@@]4(C)[C@@H]2CC[C@@H]1[C@H]3O | 29.4% |  | 1.3 µM |  |  |  | 0.91 µg/mL (≈ 2.42 µM) | 3.03 µg/mL (≈ 8.05 µM) | 0.78 µg/mL (≈ 2.07 µM) | 0.94 µg/mL (≈ 2.5 µM) | 
